{"source": "paper PMC10526274", "about": "“Epithelial-Immune Cell Crosstalk Determines the Activation of Immune Cells In Vitro by the Human Cathelicidin LL-37 at Low Physiological Concentrations” (Biomolecules, 2023)", "system": "Caco-2/moDCs co-culture", "test": "Multiplex xMAP cytokine levels, Caco-2/moDCs co-culture stimulated with LL-37", "format": "cell-based, human", "settings": "moDCs/Caco-2 co-culture, 1 µM LL-37, 24 h, n=2", "method": "Caco-2 cell line (ATCC HTB-37) was cultured in a humidified CO2-incubator (5% CO2, 37 °C) in the complete DMEM/F12 (1:1) medium (Gibco, Waltham, MA, USA) containing 10% fetal bovine serum (FBS, Gibco) and 1X antibiotic–antimycotic solution (Gibco). To stabilize the cell phenotype, Caco-2 cells have been subcultivated three times before seeding on the filter supports. Then, Caco-2 cells were seeded at a density of 2 × 10^5 cells/cm^2 onto 24-well Millicell cell culture inserts (PC, 0.4-μm pore size, 0.6 cm^2 surface area, cat. #PIHP01250) (Millipore, Burlington, MA, USA), precoated with 0.2% bovine gelatin (Sigma-Aldrich, Saint Louis, MO, USA). After seeding, Caco-2 cells were grown in the same complete medium with re-feeding every 2–3 days until polarization of the monolayer occurred. The functional polarity of the monolayers was developed when transepithelial electrical resistance (TEER) between the apical and basolateral surfaces of the monolayers reached […] as measured by the electrical resistance system Millicell-ERS Voltohmmeter (Millipore, Burlington, MA, USA). Grown cell monolayers were used in transport and cytokine production experiments between the 21st and 29th days.\nPeripheral blood mononuclear cells (PBMCs) from a healthy donor were purchased from the American Type Culture Collection (ATCC PCS-800-011). Blood monocytes were isolated from PBMCs by plastic adhesion. Mature monocyte-derived dendritic cells (moDCs) were generated in vitro from peripheral blood monocytes, according to Nair et al.. Briefly, monocytes were cultured in a humidified CO2-incubator (5% CO2, 37 °C) in the complete RPMI-1640 medium (Gibco) with 10% FBS, antibiotics, and supplemented with a cytokine cocktail containing 500 U/mL rhIL-4 and 800 U/mL rhGM-CSF (both Sci-Store, Moscow, Russia). On the third day, the medium was replaced by the same fresh medium with FBS, antibiotics, and the cytokine cocktail. Induction of maturation of the immature monocyte-derived dendritic cells was performed on the 5th day by replacing the medium with the complete RPMI-1640 medium (Gibco) with 10% FBS and antibiotics, supplemented with a cytokine cocktail containing 500 U/mL rhIL-4, 800 U/mL rhGM-CSF (both Sci-Store, Moscow, Russia), and 100 U/mL rhTNF-α (Sigma-Aldrich), and subjected to subsequent incubation of the culture for 4 more days.\nPrimary blood monocytes, moDCs, and NKT cells were seeded in 600 µL of complete RPMI-1640 with 10% Human AB serum (Capricorn Scientific, Ebsdorfergrund, Germany) and supplemented with 1X antibiotic–antimycotic solution into the wells of 24-well plates at a density of 3–7 × 10^5 cells/well 24 h before the experiment. Then, 24 h later, the medium in each well was replaced by the same medium with 1 µM of LL-37 for the sample wells or fresh medium alone for the control wells, and the permeable inserts with the Caco-2 monolayer with TEER > 400 Ω × cm^2, containing 400 μL of the complete medium in their apical chamber, were immediately placed into the appropriate wells. Also, inserts with the Caco-2 monolayer were placed in cell-free wells of 24-well plates in the same complete RPMI-1640 medium with or without 1 µM of LL-37 as controls. Cells were kept in a CO2-incubator (5% CO2, 37 °C) for another 24 h. Then, culture medium from each well was collected, centrifuged, and frozen at −70 °C.\nTo quantitatively evaluate a broad spectrum of analytes secreted by human cell cultures at the protein level, multiplex xMAP technology was used. […]", "note": "Several values for one entry are separate records, joined by “and”; a condition that tells them apart may be missing. Equal values may be shown once."}
{"substance": "LL-37: the only human cathelicidin, host defense antimicrobial peptide of 37 a.a. residues, produced by solid-phase peptide synthesis", "values": [{"measurement": "IL-2 level", "setting": "control 0.75", "value": 1.12, "unit": "pg/mL"}, {"measurement": "FLT-3L level", "setting": "control 0.87", "value": 0.93, "unit": "pg/mL"}, {"measurement": "IL-3 level", "setting": "control 0.91", "value": 0.91, "unit": "pg/mL"}, {"measurement": "IFNg level", "setting": "control 2", "value": 2.28, "unit": "pg/mL"}, {"measurement": "IL-18 level", "setting": "control 2.49", "value": 1.42, "unit": "pg/mL"}, {"measurement": "IL-15 level", "setting": "control 3.19", "value": 3.42, "unit": "pg/mL"}, {"measurement": "IL-4 level", "setting": "control 4.19", "value": 6.58, "unit": "pg/mL"}, {"measurement": "IL-5 level", "setting": "control 4.46", "value": 2.93, "unit": "pg/mL"}, {"measurement": "TGF-a level", "setting": "control 5.8", "value": 5.22, "unit": "pg/mL"}, {"measurement": "IL-1b level", "setting": "control 5.83", "value": 5.83, "unit": "pg/mL"}, {"measurement": "EGF level", "setting": "control 6.26", "value": 6.51, "unit": "pg/mL"}, {"measurement": "IL-9 level", "setting": "control 7.45", "value": 7.45, "unit": "pg/mL"}, {"measurement": "IFNa2 level", "setting": "control 8.64", "value": 10.16, "unit": "pg/mL"}, {"measurement": "TNFb level", "setting": "control 9.34", "value": 15.39, "unit": "pg/mL"}, {"measurement": "GM-CSF level", "setting": "control 10.7", "value": 8.75, "unit": "pg/mL"}, {"measurement": "IL-1RA level", "setting": "control 11.1", "value": 13.57, "unit": "pg/mL"}, {"measurement": "G-CSF level", "setting": "control 16.25", "value": 14.89, "unit": "pg/mL"}, {"measurement": "Fractalkine level", "setting": "control 22.95", "value": 25.92, "unit": "pg/mL"}, {"measurement": "IL-6 level", "setting": "control 23.82", "value": 26.83, "unit": "pg/mL"}, {"measurement": "IL-22 level", "setting": "control 26.11, p = 0.10", "value": "37 pg/mL and 37.22 pg/mL"}, {"measurement": "TNFa level", "setting": "control 41.39", "value": 44.26, "unit": "pg/mL"}, {"measurement": "IL-13 level", "setting": "control 43.59", "value": 50.71, "unit": "pg/mL"}, {"measurement": "FGF-2 level", "setting": "control 47.27", "value": 47.27, "unit": "pg/mL"}, {"measurement": "IL-12 (p40) level", "setting": "control 57.35", "value": 55.01, "unit": "pg/mL"}, {"measurement": "GROa level", "setting": "control 60.81", "value": 70.33, "unit": "pg/mL"}, {"measurement": "IL-27 level", "setting": "control 63.66", "value": 70.72, "unit": "pg/mL"}, {"measurement": "PDGF-AB/BB level", "setting": "control 72.4", "value": 83.52, "unit": "pg/mL"}, {"measurement": "IL-10 level", "setting": "control 81.69, p = 0.0035", "value": "52 pg/mL and 52.63 pg/mL"}, {"measurement": "IP-10 level", "setting": "control 90.92", "value": 118.06, "unit": "pg/mL"}, {"measurement": "sCD40L level", "setting": "control 95.47", "value": 95.47, "unit": "pg/mL"}, {"measurement": "RANTES level", "setting": "control 142.05", "value": 223.43, "unit": "pg/mL"}, {"measurement": "M-GSF level", "setting": "control 168.7", "value": 172.56, "unit": "pg/mL"}, {"measurement": "PDGF-AA level", "setting": "control 252.85", "value": 237.55, "unit": "pg/mL"}, {"measurement": "MCP-3 level", "setting": "control 376.42", "value": 372.12, "unit": "pg/mL"}, {"measurement": "VEGFa level", "setting": "control 723.09", "value": 1786, "unit": "pg/mL"}, {"measurement": "MIP-1a level", "setting": "control 1271", "value": 1487, "unit": "pg/mL"}, {"measurement": "MIP-1b level", "setting": "control 1340", "value": 1789, "unit": "pg/mL"}, {"measurement": "MCP-1 level", "setting": "control 2519", "value": 1925, "unit": "pg/mL"}, {"measurement": "IL-8 level", "setting": "control 2799", "value": 3052, "unit": "pg/mL"}, {"measurement": "MIG level", "setting": "control 25746", "value": 25834, "unit": "pg/mL"}, {"measurement": "IL-7 level", "setting": "control <0.30", "value": "<0.30↓ pg/ml"}, {"measurement": "IL-17A level", "setting": "control <0.70", "value": "<0.70↓ pg/ml"}, {"measurement": "IL-1a level", "setting": "control <1.30", "value": "<1.30↓ pg/ml"}, {"measurement": "IL-12 (p70) level", "setting": "control <1.71", "value": "<1.71↓ pg/ml"}, {"measurement": "Eotaxin level", "setting": "control <2.91", "value": 3.03, "unit": "pg/mL"}, {"measurement": "IL-17F level", "setting": "control <12.19", "value": "<12.19↓ pg/ml"}, {"measurement": "IL-17E/IL-25 level", "setting": "control <19.43", "value": "<19.43↓ pg/ml"}, {"measurement": "MDC level", "setting": "control >14590", "value": 6291, "unit": "pg/mL"}]}
